The values that follow come from patent US8088822B2, “Use of fenretinide or bioactive derivatives thereof and pharmaceutical compositions comprising the same” (priority 2008, dated 2012).

The subject of test [1] is NB4 cells. Description: Antagonist assays, apoptosis of NB4 cells. The test is classed as cell-based. As to conditions: 100 μM vitamin C pre-treatment 2 hours, then 1 μM fenretinide 24 hours.
For test [2], the system named is U937. Description: Apoptosis in AML cell line U937. The test is classed as cell-based. To be noted: U937, within 48 hours, alone or combined. On the procedure:
(§1) 2×10^5 cultured cells were used for evaluating apoptosis using an ApoAlert Annexin V-FITC Apoptosis Kit (BD Biosciences). Cells were washed once by PBS, resuspended in 200 μl Annexin-V binding buffer, and then stained with Annexin V-FITC 5 μl, PI 10 μl for 15 min at room temperature in the dark. Cells were subsequently analyzed by flow cytometry.
There are two observations that drive us in further exploring alternative therapeutic combinations. As illustrated in Example 6, proteasome inhibitors can potentate fenretinide-induced apoptosis in leukemia. […] The apoptosis rates were quite low when treated alone within 48 hours (nearly 5%), and the number doubled when treated by fenretinide and MG132.

Test [3] relates to HL60 cells. Description: Mitochondrial transmembrane potential (MTP) assay, Rh123/PI, HL60 cells. It is filed as cell-based. As to conditions: quiescent HL60 cells; 20 μM IDA or 5 μM Ara-C. On the procedure: (§2) HL60 cells were cultured in RPMI 1640 supplemented (i) with or (ii) without 10% fetal bovine serum to obtain proliferating and quiescent leukemia cells respectively. Serum-deprived quiescent leukemic cells and proliferating leukemic cells were then cultured in media containing 0.5% FBS, and treated with 1 μM and 2.5 μM fenretinide, and also with chemotherapeutics as controls, 20 μM idarubicin (IDA) and 5 μM cytarabine (Ara-C).
(§3) To examine the effects of fenretinide on proliferating and quiescent leukemia cells, HL60 cells were chosen as serum deprived quiescent leukemic cell model obtained when incubated in RPMI 1640 without serum for 48 h, with G0/G1 phase cells (being in quiescent state) accounting up to 59.9%. Serum-deprived quiescent leukemic cells and proliferating leukemic cells were then cultured in media containing 0.5% FBS, and treated with 1 μM and 2.5 μM fenretinide, and also with chemotherapeutics as controls, 20 μM idarubicin (IDA) and 5 μM cytarabine (Ara-C). […] Fenretinide induces intracellular production of ROS, lowers mitochondrial transmembrane potential (MTP), and eventually leads to apoptosis in a variety of malignancies. We measured MTP induced by fenretinide in proliferating and quiescent HL60 cells, as examined through rhodamine 123 and propidium iodide staining and followed by flow cytometry analysis. […] We further measured intracellular ROS abundance induced by fenretinide. […] After incubation with 1 μM and 2.5 μM fenretinide for 3 h, the ROS level of proliferating cells increased by 1.77 and 2.6 fold, respectively.

The test system of test [4] is U937. Description: Growth inhibition and combination index in AML cell line U937. The test is classed as cell-based. As to conditions: U937, single agent. Here is the method:
The combination Index (CI) was used to test the combination effect of fenretinide and Ara-C on growth inhibition in AML cell line U937. The CI was calculated according to the classic isobologram equation: CI=d1/D1+d2/D2. In this equation, D1 and D2 represent the doses of drug 1 and drug 2 alone, required to produce x % effect, and d1 and d2 are the doses of drugs 1 and 2 in combination required to produce the same effect. And CI<1, CI>1 and CI=1 represent the synergism, […], respectively.

For test [5], the system named is CD34+CD38− AML stem cells. Description: Apoptosis of AML stem cells. It is filed as cell-based, human. As to conditions: 1-7.5 μM, 48 h. Here is the method:
(§4) Primitive AML and CML subpopulations (CD34^+ cells) were identified using CD34-PE in combination with CD38-APC, and followed by double-labeling with 7AAD and Annexin V antibodies for apoptosis assessment. The CD34^+ cells were first stained with antibodies against the surface markers CD34-PE and CD38-APC (Beckman Coulter, Fullerton, Calif.) and incubated at room temperature for 15 minutes. Cells were then washed with cold PBS and resuspended in 200 μL annexin V 1×binding buffer (10 mM HEPES/NaOH, pH 7.4, 140 mM NaCl, 2.5 mM CaCl2), 5 μL AnnexinV-FITC (BD Phanningen, San Diego, Calif.) and 7-aminoactinomycin (7-AAD, 0.25 mg/mL) (Molecular Probes, Eugene, Oreg.). Subsequently, the samples were incubated at room temperature for 15 minutes and analyzed by flow cytometry.
(§5) To determine whether 4-oxo-N-(4-hydroxyphenyl)retinamide like fenretinide could preferentially target primitive leukemia cells, CD34^+ cells are isolated from bone marrow specimens of AML patients and subjected to apoptosis assay upon the treatment with 1-7.5 μM 4-oxo-N-(4-hydroxyphenyl)retinamide for 48 h.

Test [6] concerns CD34+CD38+ AML progenitor cells. Description: Apoptosis of AML progenitor cells. The test is classed as cell-based, human. As to conditions: 1-7.5 μM, 48 h. On the procedure: as §4, §5
Test [7] relates to HL60 cells. Description: MTT cell viability of quiescent and proliferating HL60 cells. The test is classed as cell-based. To be noted: 0-10 μM, 24 and 48 h. Here is the method: The cell viability was determined by 3-(4,5-dimethylthiazol-2-yl)-2,5-diphenyltetrazolium bromide (MTT) assay.
As previous case (Example 1), HL60 cells were chosen as serum deprived quiescent leukemic cell model obtained when incubated in RPMI 1640 without serum for 48 h. Serum-deprived quiescent leukemic cells and proliferating leukemic cells were then cultured in media containing 0.5% FBS, and treated with 0-10 μM 4-oxo-N-(4-hydroxyphenyl)retinamide for 24 and 48 h, respectively. The cell viability was test by MTT assay.

For test [8], the system named is K562. Description: Apoptosis in CML cell line K562. It is filed as cell-based. As to conditions: 4 μM fenretinide, 0.25 μM imatinib, 0.1 μM MG132, alone or combined. On the procedure:
as §1

Test [9] deals with MKN45. Description: Apoptosis in gastric tumor cell line MKN45 (Rh123/PI, FACS). It is filed as cell-based. As to conditions: MKN45, 48 hours; 4 μM fenretinide, 5 μM Tet, alone or co-treatment. On the procedure:
Loss of MTP was evaluated through rhodamine 123 (Rh123) and propidium iodide (PI) staining. 2×10^5 cells were washed by PBS and incubated with 1 μg/ml Rh123 at 37° C. for 30 min. After washed by PBS, 10 μl PI was added to cells for 15 min at room temperature in the dark. Fluorescence emission at 530 nm (representing R123 retention as a function of MTP) was measured with flow cytometry.
Fenretinide induces intracellular ROS and ER stress to activate series of molecular events including apoptotic pathway and such anti-apoptotic pathways as NF-κB cascade. NF-κB can mediate the progression of inflammation-related cancer. […] Unlike fenretinide, Tet is the well-known anti-cancer and anti-inflammation drugs via inhibiting the activity of NF-κB. For example, Tet, as the main effective component of Stephenia tetrandra S Moore, has bioactivities in reversing MDR (multidrug resistance), blocking calcium ion channel and so on. […] FIGS. 19A and 19B show synergistic induction of apoptosis by fenretinide and Tet, as evaluated by Rh123/PI double stain using FACS. […] Through annexin-V/PI double staining, synergistic apoptosis profiles of fenretinide/tetrandrine co-treated MKN45 and SGC7901 cells were also observed (see FIGS. 19C and 19D).

The subject of test [10] is HL60 cells. Description: Annexin V apoptosis assay in proliferating and serum-deprived quiescent HL60 cells. The test is classed as cell-based. To be noted: 20 μM IDA. On the procedure: as §2, §1, §3
For test [11], the system named is CML CD34+ cells. Description: Colony forming assay in primary CML CD34+ cells. It is filed as cell-based, human. To be noted: 0.25 μM imatinib, 4 μM fenretinide or both, 14 days. The text has this: Fresh bone marrow (BM) cells were obtained from 38 patients with CML and 5 non-leukemic donors, 25 AML, 17 ALL, and 8 normal specimens with informed consent according to the Declaration of Helsinki. Approval was obtained from Institutional Review Board at the School of Medicine in Shanghai Jiao Tong University. BM mononuclear cells were isolated by Ficoll density gradient centrifugation (Shanghai Second Reagent Factory, Shanghai, China). CD34^+ Cell were selected using EasySep® Human CD34 Positive Selection kit (Stem Cell Technologies, Vancouver, BC, Canada) according to the manufacturer's instructions. […] The CD34^+ cells were cultured in a serum-free medium (StemPro 34; Gibco BRL, Gaithersburg, Md.) supplemented with growth factors (PeproTech, London, United Kingdom) (20). The growth factors consisted of GM-CSF (200 pg/mL), G-CSF (1 ng/mL); SCF (200 pg/mL); LIF (50 pg/mL), MIP-1α (200 pg/mL) and IL-6 (1 ng/mL).
A quantity of 1000 CD34^+ cells were plated in semisolid methylcellulose-based media (Methocult H4434: Stem Cell Technologies, Vancouver, BC, Canada). After incubation at 37° C. in a fully humidified atmosphere of 5% CO2 for 14 days, granulocyte macrophage-colony-forming units (CFU-GM), erythroid burst-forming units (BFU-E), granulocyte, erythrocyte and monocyte, megakaryocyte-colony-forming units (CUF-GEMM) were counted. Only clusters with >50 cells were counted as a colony.
We further performed study to examine the effects of fenretinide on colony forming in primary CML cells derived from 38 bone marrow specimens of CML patients (TABLE 1). First, CML CD34^+ Cells were isolated using EasySep® Human CD34 Positive Selection kit (Stem Cell Technologies, Vancouver, BC, Canada). Upon treated with 2 μM and 4 μM fenretinide, colony forming assays were performed respectively on granulocyte macrophage-colony-forming units (CFU-GM), erythroid burst-forming units (BFU-E), granulocyte, erythrocyte and monocyte, megakaryocyte-colony-forming units (CFU-GEMM).

Test [12] concerns patients with CML. To be noted: patients with CML treated with imatinib; cited from earlier work.

Where a SMILES comes first, the peptide text is derived from it. The star is where a group is joined. Cbz = O=C(OCc1ccccc1)*

For the compound `O=C1O[C@H]([C@@H](O)CO)C([O-])=C1O.[Na+]` [vitamin C, ascorbic acid sodium salt], the “effect on fenretinide-induced apoptosis” value in [1] was “completely abrogated”.

In the case of `Nc1ccn([C@@H]2O[C@H](CO)[C@@H](O)[C@@H]2O)c(=O)n1` [Ara-C, cytosine arabinoside], the apoptosis rate in [2] is reported as about 5%. In test [3], the “change in MTP” value was “little change in MTP”. For the same compound, in test [4], the “dose alone required for growth inhibition rate of 65.47%” value amounted to 0.091 µM.

For the compound `CC1=C(/C=C/C(C)=C/C=C/C(C)=C/C(=O)Nc2ccc(O)cc2)C(C)(C)CCC1=O` [4-oxo-N-(4-hydroxyphenyl)retinamide], the “apoptosis of CD34+CD38− AML stem cells” value in test [5] was “dose-dependent manner”. The “apoptosis of CD34+CD38+ AML progenitor cells” value in [6] is reported as “dose-dependent manner”. Besides, in test [7], the “sensitivity (cell viability, MTT) of serum-deprived quiescent versus proliferating HL60 cells” value was “more sensitive”.

`CC(C)C[C@@H](C=O)NC(=O)[C@H](CC(C)C)NC(=O)[C@H](CC(C)C)NC(=O)OCc1ccccc1` [MG132, N-[(phenyl-methoxy)-carbonyl]-L-leucyl-N-[(1S)-1-formyl-3-methylbutyl]-L-Leucinamide] (Cbz-Leu-Leu-Leu-aldehyde): the results for the apoptosis rate in [2] and in test [8] were about 5% and 2.51%, respectively.

With `COc1ccc2cc1Oc1ccc(cc1)C[C@H]1c3cc(c(OC)cc3CCN1C)Oc1c(OC)c(OC)cc3c1[C@H](C2)N(C)CC3` [Tet, tetrandrine], the apoptosis in test [9] is on record as 15.8%.

Regarding `CC(=O)[C@]1(O)Cc2c(O)c3c(c(O)c2[C@@H](O[C@H]2C[C@H](N)[C@H](O)[C@H](C)O2)C1)C(=O)c1ccccc1C3=O` [IDA, idarubicin], the apoptosis rate in test [10] (proliferating HL60 cells) was 88.7%; in test [10] (quiescent HL60 cells) it was 29.1%. Also, in [3], the “change in MTP” value was “little change in MTP”.

For the compound `Cc1ccc(NC(=O)c2ccc(CN3CCN(C)CC3)cc2)cc1Nc1nccc(-c2cccnc2)n1` [imatinib, 4-[(4-methylpiperazin-1-yl)methyl]-N-[4-methyl-3-[(4-(3-pyridinyl)-pyrimidin-2-yl)amino]phenyl]benzamide], the “GFU-GEMM formed by the more primitive progenitor cells” value in test [11] was “could be detected”. The apoptosis rate in [8] came to 12.8%. In [12], the “complete cytogenetic response (CCR)” value was about 87%.
